We go through 14 molecules from patent US12180207B2 (ARRAY BIOPHARMA INC., priority 2018, dated 2024).

Molecules are shown by their SMILES.

In experiment [1] the target is recombinant human FGFR3 (amino acids R397-T806) (Homo sapiens (Human), UniProt P22607). Description: FGFR3 enzyme activity assay (LanthaScreen TR-FRET). Format: biochemical. As to conditions: 25 μM ATP, 10 min incubation at 22° C., average of multiple determinations if made, read-out: FGFR3 Enz FRET IC50. The procedure, abridged:
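GST-HIS6-tagged human FGFR3 (R397-T806) was reacted with 100 nM Alexa Fluor 647-Poly-GT substrate and 25 μM ATP plus compound in HEPES/MgCl2/Triton buffer, pH 7.5, 2% DMSO, for 10 min at 22 °C.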

Experiment [2] concerns the target recombinant human FGFR2 cytoplasmic domain (amino acids 403-822) (Homo sapiens (Human), UniProt P21802). Description: FGFR2 enzyme activity assay (LanthaScreen TR-FRET). In kind it is biochemical. Particulars: 15 μM ATP, 20 min incubation at 22° C., average of multiple determinations if made, read-out: FGFR2 Enz FRET IC50. The method in brief: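 His-tagged FGFR2 cytoplasmic domain ([…]) with 100 nM Alexa Fluor 647-poly-GT peptide and 15 μM ATP in HEPES/MgCl2/Triton buffer, pH 7.5, 2% DMSO, 20 min at 22 °C. EDTA-quenched, Eu-PY20 antibody added, TR-FRET read after 60 min.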

Experiment [3] addresses FGFR3 (SEQ ID NO: 5, amino acids 449-759) (Homo sapiens (Human), UniProt P22607). Description: LC/MS FGFR3 kobs assay (covalent protein modification). Format: binding. Particulars: 500 nM FGFR3, 3 μM compound. The method in brief: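 Timed reactions were stopped with 0.4% formic acid, and covalent adduct formation was measured by LC/MS on a Q-TOF with deconvolution of protein masses. Modified signal was normalized to DMSO-control unmodified protein at each time point; percent unmodified protein was fit to exponential decay to give kobs.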

Experiment [4] deals with HEK-293 cells transfected with dox-inducible human wild type FGFR1 (Homo sapiens (Human), UniProt P11362). Kind of experiment: FGFR1 pERK cell assay. As to conditions: HEK-293 dox-inducible FGFR1, 1 hour compound, 100 ng/ml FGF-acidic; maximum concentration 5 μM. In kind it is cell-based. The procedure, abridged:
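In HEK-293 cells with dox-induced human wild-type FGFR1, compounds (1:3 dilutions, top 5 μM final) were applied 1 h at 37°C before 5 min stimulation with 100 ng/ml FGF-acidic. Phospho-ERK1/2 measured by MSD sandwich immunoassay; IC50 from 4-parameter fit of POC versus vehicle and control compound.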

Experiment [5] has as its target FGFR1 (SEQ ID NO: 1, amino acids 458-765) (Homo sapiens (Human), UniProt P11362). Kind of experiment: LC/MS FGFR1 kobs assay (covalent protein modification). As to conditions: 500 nM FGFR1, 3 μM compound. Format: binding. The method in brief:
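Covalent labeling of FGFR1 kinase domain (aa 458-765) tracked over time by intact-protein LC/MS after formic acid quench. kobs derived by fitting DMSO-normalized percent unmodified FGFR1 to an exponential decay model.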

recombinant human FGFR3 (amino acids R397-T806), sequence (P22607 397-806): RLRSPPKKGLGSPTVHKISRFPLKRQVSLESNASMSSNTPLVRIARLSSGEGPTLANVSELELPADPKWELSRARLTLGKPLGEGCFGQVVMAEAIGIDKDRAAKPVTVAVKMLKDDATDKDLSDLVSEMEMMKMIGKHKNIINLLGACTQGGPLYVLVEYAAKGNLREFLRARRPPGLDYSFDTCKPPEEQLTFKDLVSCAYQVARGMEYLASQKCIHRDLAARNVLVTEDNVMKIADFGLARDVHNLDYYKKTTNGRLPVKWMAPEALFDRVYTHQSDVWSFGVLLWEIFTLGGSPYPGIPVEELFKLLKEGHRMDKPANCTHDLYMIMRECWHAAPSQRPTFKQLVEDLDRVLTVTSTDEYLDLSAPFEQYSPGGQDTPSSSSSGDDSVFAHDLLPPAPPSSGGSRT
FGFR1 (SEQ ID NO: 1, amino acids 458-765), sequence (P11362 458-765): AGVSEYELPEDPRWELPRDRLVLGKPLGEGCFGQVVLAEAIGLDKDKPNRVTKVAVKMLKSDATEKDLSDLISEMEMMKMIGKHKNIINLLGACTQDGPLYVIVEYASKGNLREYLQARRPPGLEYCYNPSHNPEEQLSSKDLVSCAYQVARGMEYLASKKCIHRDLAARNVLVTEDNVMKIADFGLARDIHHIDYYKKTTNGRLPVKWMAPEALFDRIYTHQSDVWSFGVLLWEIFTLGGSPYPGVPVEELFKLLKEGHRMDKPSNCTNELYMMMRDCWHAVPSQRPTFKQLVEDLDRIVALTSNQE
recombinant human FGFR2 cytoplasmic domain (amino acids 403-822), sequence (P21802 402-821): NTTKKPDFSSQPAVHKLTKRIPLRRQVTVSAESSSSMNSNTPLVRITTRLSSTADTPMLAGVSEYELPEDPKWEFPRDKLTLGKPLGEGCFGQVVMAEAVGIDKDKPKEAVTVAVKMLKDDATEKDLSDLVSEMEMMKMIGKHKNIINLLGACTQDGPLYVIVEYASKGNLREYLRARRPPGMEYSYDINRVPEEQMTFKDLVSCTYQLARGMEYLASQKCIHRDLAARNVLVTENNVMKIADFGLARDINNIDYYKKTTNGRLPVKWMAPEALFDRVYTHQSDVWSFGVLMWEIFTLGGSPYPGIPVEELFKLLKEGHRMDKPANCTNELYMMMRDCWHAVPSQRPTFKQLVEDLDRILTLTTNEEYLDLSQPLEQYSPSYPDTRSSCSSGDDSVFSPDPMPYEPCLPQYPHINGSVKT
HEK-293 cells transfected with dox-inducible human wild type FGFR1, sequence (P11362 22-822): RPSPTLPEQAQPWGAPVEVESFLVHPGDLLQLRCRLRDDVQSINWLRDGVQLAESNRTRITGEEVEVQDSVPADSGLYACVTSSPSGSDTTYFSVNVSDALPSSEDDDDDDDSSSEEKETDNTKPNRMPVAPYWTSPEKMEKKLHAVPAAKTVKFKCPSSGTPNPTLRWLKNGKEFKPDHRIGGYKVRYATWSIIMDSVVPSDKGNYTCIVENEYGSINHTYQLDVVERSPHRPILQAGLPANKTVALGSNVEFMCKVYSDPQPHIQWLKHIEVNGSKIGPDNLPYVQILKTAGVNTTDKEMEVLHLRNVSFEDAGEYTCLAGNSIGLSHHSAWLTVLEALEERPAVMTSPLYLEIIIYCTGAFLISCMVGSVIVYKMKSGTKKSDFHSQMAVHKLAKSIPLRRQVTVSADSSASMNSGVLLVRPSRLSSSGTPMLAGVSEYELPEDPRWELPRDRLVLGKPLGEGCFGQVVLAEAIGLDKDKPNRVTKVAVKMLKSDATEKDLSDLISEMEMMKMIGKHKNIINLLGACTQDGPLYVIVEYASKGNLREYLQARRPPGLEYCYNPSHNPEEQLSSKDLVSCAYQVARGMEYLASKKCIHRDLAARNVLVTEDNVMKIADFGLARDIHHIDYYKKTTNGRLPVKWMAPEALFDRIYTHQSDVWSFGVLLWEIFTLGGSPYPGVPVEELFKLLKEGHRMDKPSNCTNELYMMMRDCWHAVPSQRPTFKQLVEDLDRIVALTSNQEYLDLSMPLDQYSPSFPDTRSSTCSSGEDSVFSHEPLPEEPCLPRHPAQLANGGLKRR
FGFR3 (SEQ ID NO: 5, amino acids 449-759), sequence (P22607 449-759): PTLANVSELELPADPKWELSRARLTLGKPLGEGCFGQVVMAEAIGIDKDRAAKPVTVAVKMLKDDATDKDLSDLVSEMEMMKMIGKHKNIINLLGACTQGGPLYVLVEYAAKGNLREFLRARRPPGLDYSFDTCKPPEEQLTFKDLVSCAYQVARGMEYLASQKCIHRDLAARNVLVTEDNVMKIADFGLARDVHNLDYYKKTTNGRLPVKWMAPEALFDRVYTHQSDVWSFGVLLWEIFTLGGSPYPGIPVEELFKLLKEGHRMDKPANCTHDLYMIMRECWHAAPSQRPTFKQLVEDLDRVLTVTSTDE

For `C#CC(=O)N1CC(C(=O)N2CCC(n3cc(-c4cc(OC)c5c(C#N)cnn5c4)cn3)CC2)C1` [Example 138, 4-methoxy-6-(1-(1-(1-propioloylazetidine-3-carbonyl)piperidin-4-yl)-1H-pyrazol-4-yl)pyrazolo[1,5-a]pyridine-3-carbonitrile], the IC50 turned out to be 2 nM in experiment [1], 3 nM in experiment [2] and 116 nM in experiment [4]. Further, in experiment [3], the “FGFR3 Enz kobs” value was 0.3446 min⁻¹. In addition, in experiment [5], the “FGFR1 Enz kobs” value turned out to be 0.01359 min⁻¹.
Consider `COc1cc(-c2cnn(C3CCN(C(=O)C4CN(C(=O)/C=C/CO)C4)CC3)c2)cn2ncc(C#N)c12` [Example 141, (E)-6-(1-(1-(1-(4-hydroxybut-2-enoyl)azetidine-3-carbonyl)piperidin-4-yl)-1H-pyrazol-4-yl)-4-methoxypyrazolo [1,5-a]pyridine-3-carbonitrile], for which the half-maximal inhibitory concentration (IC50) in experiment [1] was 6 nM; in experiment [2], 5 nM; in experiment [4], ≥ 5000 nM. Further, the “FGFR3 Enz kobs” value in experiment [3] is 0.00171 min⁻¹. For the same molecule, in experiment [5], the “FGFR1 Enz kobs” value was 0.00014 min⁻¹.
On the same counts, the results for `COc1cc(-c2cnn(C3CCN(CC4CN(C(=O)/C=C/CN(C)C)C4)CC3)c2)cn2ncc(C#N)c12` [Example 146, (E)-6-(1-(1-((1-(4-(dimethylamino)but-2-enoyl)azetidin-3-yl)methyl)piperidin-4-yl)-1H-pyrazol-4-yl)-4-methoxypyrazolo [1,5-a]pyridine-3-carbonitrile] are 2 nM, 2 nM, 496 nM, 0.01542 min⁻¹ and 0.00306 min⁻¹.
On the same counts, the results for `C=CC(=O)N1CC(CN2CCC(n3ncc(-c4cc(OC)c5c(C#N)cnn5c4)c3C)CC2)C1(C)C` (stereo not shown) [Example 151, 6-(1-(1-((1-acryloyl-2,2-dimethylazetidin-3-yl)methyl)piperidin-4-yl)-5-methyl-1H-pyrazol-4-yl)-4-methoxypyrazolo [1,5-a]pyridine-3-carbonitrile] are 17 nM, 9 nM, 1960 nM, 0.0082 min⁻¹ and 0.0008 min⁻¹.
On the same counts, the results for `COc1cc(-c2cnn(C3CCN(C(=O)C4CN(C(=O)/C=C/CN(C)C)C4)CC3)c2C)cn2ncc(C#N)c12` [Example 152, (E)-6-(1-(1-(1-(4-(dimethylamino)but-2-enoyl)azetidine-3-carbonyl)piperidin-4-yl)-5-methyl-1H-pyrazol-4-yl)-4-methoxypyrazolo [1,5-a]pyridine-3-carbonitrile] are 16 nM, 35 nM, ≥ 5000 nM, 0.03526 min⁻¹ and 0.00338 min⁻¹.
For the molecule `COc1cc(-c2cnn(C3CCN(C(=O)C4(F)CN(C(=O)/C=C/CN(C)C)C4)CC3)c2C)cn2ncc(C#N)c12` [Example 153, (E)-6-(1-(1-(1-(4-(dimethylamino)but-2-enoyl)-3-fluoroazetidine-3-carbonyl)piperidin-4-yl)-5-methyl-1H-pyrazol-4-yl)-4-methoxypyrazolo [1,5-a]pyridine-3-carbonitrile], the half-inhibitory concentration (IC50) in experiment [1] amounted to 5 nM; in experiment [2], 4 nM; in experiment [4], 2 nM. For the same molecule, the “FGFR3 Enz kobs” value in experiment [3] came to 0.1578 min⁻¹. The “FGFR1 Enz kobs” value in experiment [5] was 0.00975 min⁻¹.
The like results for `COC/C=C/C(=O)N1CC(F)(C(=O)N2CCC(n3ncc(-c4cc(OC)c5c(C#N)cnn5c4)c3C)CC2)C1` [Example 154, (E)-6-(1-(1-(3-fluoro-1-(4-methoxybut-2-enoyl)azetidine-3-carbonyl)piperidin-4-yl)-5-methyl-1H-pyrazol-4-yl)-4-methoxypyrazolo [1,5-a]pyridine-3-carbonitrile] were, in that order, 19 nM, 16 nM, 2630 nM, 0.00747 min⁻¹ and 0.00081 min⁻¹.
Turning to `CC#CC(=O)N1CC(F)(C(=O)N2CCC(n3ncc(-c4cc(OC)c5c(C#N)cnn5c4)c3C)CC2)C1` [Example 156, 6-(1-(1-(1-(but-2-ynoyl)-3-fluoroazetidine-3-carbonyl)piperidin-4-yl)-5-methyl-1H-pyrazol-4-yl)-4-methoxypyrazolo [1,5-a]pyridine-3-carbonitrile], the IC50 in experiment [1] was 24 nM; in experiment [2], 84 nM; in experiment [4], 3110 nM. Besides, the “FGFR3 Enz kobs” value in experiment [3] came to 0.00585 min⁻¹. Also, the “FGFR1 Enz kobs” value in experiment [5] was determined as 0.0008 min⁻¹.
On the same counts, the results for `COc1cc(-c2cnn(C3CCN(C(=O)C4(C)CN(C(=O)/C=C/CN(C)C)C4)CC3)c2C)cn2ncc(C#N)c12` [Example 157, (E)-6-(1-(1-(1-(4-(dimethylamino)but-2-enoyl)-3-methylazetidine-3-carbonyl)piperidin-4-yl)-5-methyl-1H-pyrazol-4-yl)-4-methoxypyrazolo [1,5-a]pyridine-3-carbonitrile] are 18 nM, 30 nM, ≥ 5000 nM, 0.03267 min⁻¹ and 0.0025 min⁻¹.
`COc1cc(-c2cnn(C3CCN(C(=O)C4(OC)CN(C(=O)/C=C/CN(C)C)C4)CC3)c2C)cn2ncc(C#N)c12` [Example 158, (E)-6-(1-(1-(1-(4-(dimethylamino)but-2-enoyl)-3-methoxyazetidine-3-carbonyl)piperidin-4-yl)-5-methyl-1H-pyrazol-4-yl)-4-methoxypyrazolo [1,5-a]pyridine-3-carbonitrile]: the half-inhibitory concentration (IC50) in experiment [1] amounted to 8 nM; in experiment [2], 30 nM; in experiment [4], 1830 nM. For the same molecule, the “FGFR3 Enz kobs” value in experiment [3] amounted to 0.1008 min⁻¹. Moreover, the “FGFR1 Enz kobs” value in experiment [5] turned out to be 0.00588 min⁻¹.
On to `COc1cc(-c2cnn(C3CCN(CC4(OC)CN(C(=O)/C=C/CN(C)C)C4)CC3)c2C)cn2ncc(C#N)c12` [Example 159, (E)-6-(1-(1-((1-(4-(dimethylamino)but-2-enoyl)-3-methoxyazetidin-3-yl)methyl)piperidin-4-yl)-5-methyl-1H-pyrazol-4-yl)-4-methoxypyrazolo [1,5-a]pyridine-3-carbonitrile], for which the IC50 in experiment [1] turned out to be 10 nM; in experiment [2] it was 7 nM; in experiment [4] it was 737 nM. Also, the “FGFR3 Enz kobs” value in experiment [3] worked out at 0.0605 min⁻¹. For the same molecule, the “FGFR1 Enz kobs” value in experiment [5] stood at 0.00408 min⁻¹.
Turning to `COc1cc(-c2cnn(C3CN(C(=O)C4(F)CN(C(=O)/C=C/CN(C)C)C4)C3)c2C)cn2ncc(C#N)c12` [Example 160, (E)-6-(1-(1-(1-(4-(dimethylamino)but-2-enoyl)-3-fluoroazetidine-3-carbonyl)azetidin-3-yl)-5-methyl-1H-pyrazol-4-yl)-4-methoxypyrazolo [1,5-a]pyridine-3-carbonitrile], the figures for the half-inhibitory concentration (IC50) in experiment [1], in experiment [2] and in experiment [4] were 34 nM, 179 nM and 3280 nM, respectively. Further, the “FGFR3 Enz kobs” value in experiment [3] stood at 0.08254 min⁻¹. In addition, the “FGFR1 Enz kobs” value in experiment [5] stood at 0.00659 min⁻¹.
Take `COc1cc(-c2c(C)nn(C3CCN(C(=O)C4(F)CN(C(=O)/C=C/CN(C)C)C4)CC3)c2C)cn2ncc(C#N)c12` [Example 161, (E)-6-(1-(1-(1-(4-(dimethylamino)but-2-enoyl)-3-fluoroazetidine-3-carbonyl)piperidin-4-yl)-3,5-dimethyl-1H-pyrazol-4-yl)-4-methoxypyrazolo [1,5-a]pyridine-3-carbonitrile]: the IC50 in experiment [1] is 20 nM; in experiment [2], 31 nM; in experiment [4], 1620 nM. The “FGFR3 Enz kobs” value in experiment [3] was determined as 0.1129 min⁻¹. For the same molecule, the “FGFR1 Enz kobs” value in experiment [5] worked out at 0.00744 min⁻¹.
The like results for `CCc1c(-c2cc(OC)c3c(C#N)cnn3c2)cnn1C1CCN(C(=O)C2(F)CN(C(=O)/C=C/CN(C)C)C2)CC1` [Example 162, (E)-6-(1-(1-(1-(4-(dimethylamino)but-2-enoyl)-3-fluoroazetidine-3-carbonyl)piperidin-4-yl)-5-ethyl-1H-pyrazol-4-yl)-4-methoxypyrazolo [1,5-a]pyridine-3-carbonitrile] were, in that order, 99 nM, 69 nM, 1440 nM, 0.07862 min⁻¹ and 0.00455 min⁻¹.
